From PMC7531004, “Discovery of gramicidin A analogues with altered activities by multidimensional screening of a one-bead-one-compound library” (Nature Communications, 2020)
Where a SMILES comes first, the peptide text is derived from it. [ ]: non-standard residue; d: D form. The star is where a group is joined. NHCH2CH2OH = OCCN*; For = O=C*

How the values were obtained:
[1] = H+/Na+ transport assay of bead-derived peptides (one-point); assay type: biochemical; parameters: key: relative activity; mean of two control wells = 1.00; conditions: bead-derived peptide solution, EYPC/EYPG LUVs;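 also: relative to parent gramicidin A activity set to 1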
Outline: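 H+/Na+ transport is monitored through pyranine fluorescence in freshly extruded LUVs after a 30-min room-temperature vortex with each library peptide at a single concentration. Signals are normalized to detergent (Triton X-100) and untreated controls.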

[2] = cell viability/%
Outline: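 P388 cells at 1 × 10^4 cells/mL (final) were exposed to library peptides (stocks diluted 250-fold in RPMI1640/10% FBS) for 92 h at 37 °C, 5% CO2. Viable cells were counted by WST-1/1-methoxy PMS (4 h), absorbance 415 nm, and expressed as cell viability (%).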

[3] = system: Streptococcus pyogenes SSI-9; assay: Antibacterial activity assay of bead-derived peptides (three concentrations); assay type: cell-based; parameters: key: +++: inhibition by the 640-fold diluted peptide solution; ++: inhibition by the 160-fold diluted solution; +: inhibition by the 40-fold diluted solution; -: no inhibition; conditions: S. pyogenes, bead-derived peptide solution, three concentrations
Outline: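 Library peptide stock applied undiluted, 4-fold and 16-fold diluted in DMSO to S. pyogenes SSI-9 (2 × 10^5 CFU) in cation-adjusted Mueller Hinton broth with 5% laked horse blood. After 18 h at 37 °C, growth judged by visible cell precipitation.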

Q: For CC(C)C[C@@H](NC(=O)[C@H](C)NC(=O)[C@H](NC(=O)[C@H](C)NC(=O)CNC(=O)[C@@H](NC=O)C(C)C)C(C)C)C(=O)N[C@H](C(=O)N[C@H](CC(C)C)C(=O)N[C@@H](Cc1c[nH]c2ccccc12)C(=O)N[C@@H](C(=O)N[C@@H](Cc1c[nH]c2ccccc12)C(=O)N[C@H](CC(C)C)C(=O)N[C@@H](Cc1c[nH]c2ccccc12)C(=O)N[C@@H](C(=O)N[C@@H](Cc1c[nH]c2ccccc12)C(=O)NCCO)[C@H](C)O)C(C)C)C(C)C [compound 2895] (For-VGA[dV]A[dL]V[dL]W[dV]W[dL]W[dT]W-NHCH2CH2OH), which “H+/Na+ transport activity normalized against the value of 1 (1.00)” value (“H+/Na+ transport activity normalized” below) [1] is on record?
A: Its value is 1.06.

Q: And the viability [2]?
A: The viability was 95.1%.

Q: And the antibacterial activity [3]?
A: Its antibacterial activity is “-”.

Q: What does the source list for CC(C)C[C@@H](NC(=O)[C@H](C)NC(=O)[C@H](NC(=O)[C@H](C)NC(=O)CNC(=O)[C@@H](NC=O)C(C)C)[C@H](C)O)C(=O)N[C@H](C(=O)N[C@@H](C(=O)N[C@@H](Cc1c[nH]c2ccccc12)C(=O)N[C@H](CC(C)C)C(=O)N[C@@H](Cc1c[nH]c2ccccc12)C(=O)N[C@H](CC(C)C)C(=O)N[C@@H](Cc1c[nH]c2ccccc12)C(=O)N[C@@H](C(=O)N[C@@H](Cc1c[nH]c2ccccc12)C(=O)NCCO)C(C)C)C(C)C)C(C)C [compound 4605] (For-VGA[dT]A[dL]V[dV]W[dL]W[dL]W[dV]W-NHCH2CH2OH)?
A: H+/Na+ transport activity normalized against the value of 1 (1.00) [1]: 1.35; viability [2]: 100%; antibacterial activity [3]: -

Q: With CC(C)C[C@@H](NC(=O)[C@H](C)NC(=O)CNC(=O)[C@@H](NC=O)C(C)C)C(=O)N[C@@H](C)C(=O)N[C@@H](C(=O)N[C@H](C(=O)N[C@@H](C(=O)N[C@@H](Cc1c[nH]c2ccccc12)C(=O)N[C@@H](C(=O)N[C@@H](Cc1c[nH]c2ccccc12)C(=O)N[C@@H](C(=O)N[C@@H](Cc1c[nH]c2ccccc12)C(=O)N[C@@H](C(=O)N[C@@H](Cc1c[nH]c2ccccc12)C(=O)NCCO)C(C)C)C(C)C)C(C)C)C(C)C)C(C)C)[C@H](C)O [compound 5343] (For-VGA[dL]A[dT]V[dV]W[dV]W[dV]W[dV]W-NHCH2CH2OH) as the compound, how does the “H+/Na+ transport activity normalized” value [1] read?
A: The value was 1.33.

Q: What about the viability [2] of the same compound?
A: Its viability is 100%.

Q: And the antibacterial activity [3]?
A: The antibacterial activity was “-”.

Q: What does the source list for CC(C)C[C@@H](NC(=O)[C@H](C)NC(=O)[C@H](NC(=O)[C@H](C)NC(=O)CNC(=O)[C@@H](NC=O)C(C)C)C(C)C)C(=O)N[C@H](C(=O)N[C@@H](C(=O)N[C@@H](Cc1c[nH]c2ccccc12)C(=O)N[C@H](CC(C)C)C(=O)N[C@@H](Cc1c[nH]c2ccccc12)C(=O)N[C@@H](C(=O)N[C@@H](Cc1c[nH]c2ccccc12)C(=O)N[C@H](CC(C)C)C(=O)N[C@@H](Cc1c[nH]c2ccccc12)C(=O)NCCO)C(C)C)[C@H](C)O)C(C)C [compound 6842] (For-VGA[dV]A[dL]V[dT]W[dL]W[dV]W[dL]W-NHCH2CH2OH)?
A: H+/Na+ transport activity normalized against the value of 1 (1.00) [1]: 1.14; viability [2]: 100%; antibacterial activity [3]: -

Q: For CNC(=O)C[C@@H](NC(=O)[C@H](Cc1c[nH]c2ccccc12)NC(=O)[C@H](NC(=O)[C@@H](NC(=O)[C@@H](CC(C)C)NC(=O)[C@H](C)NC(=O)[C@@H](CC(C)C)NC(=O)[C@H](C)NC(=O)CNC(=O)[C@@H](NC=O)C(C)C)C(C)C)C(C)C)C(=O)N[C@@H](Cc1c[nH]c2ccccc12)C(=O)N[C@H](CC(C)C)C(=O)N[C@@H](Cc1c[nH]c2ccccc12)C(=O)N[C@@H](C(=O)N[C@@H](Cc1c[nH]c2ccccc12)C(=O)NCCO)C(C)C [compound 3329] (For-VGA[dL]A[dL]V[dV]W[dD](NHMe)W[dL]W[dV]W-NHCH2CH2OH), which “H+/Na+ transport activity normalized” value [1] is on record?
A: Its value is 1.33.

Q: And the viability [2]?
A: The viability was 100%.

Q: And the antibacterial activity [3]?
A: The antibacterial activity was “+”.

Q: With CNC(=O)C[C@@H](NC(=O)[C@H](Cc1c[nH]c2ccccc12)NC(=O)[C@@H](CC(C)C)NC(=O)[C@@H](NC(=O)[C@@H](CC(C)C)NC(=O)[C@H](C)NC(=O)[C@H](NC(=O)[C@H](C)NC(=O)CNC(=O)[C@@H](NC=O)C(C)C)C(C)C)C(C)C)C(=O)N[C@@H](Cc1c[nH]c2ccccc12)C(=O)N[C@@H](C(=O)N[C@@H](Cc1c[nH]c2ccccc12)C(=O)N[C@@H](C(=O)N[C@@H](Cc1c[nH]c2ccccc12)C(=O)NCCO)C(C)C)C(C)C [compound 1152] (For-VGA[dV]A[dL]V[dL]W[dD](NHMe)W[dV]W[dV]W-NHCH2CH2OH) as the compound, how does the “H+/Na+ transport activity normalized” value [1] read?
A: Its value is 1.05.

Q: And the viability [2]?
A: Its viability is 100%.

Q: What about the antibacterial activity [3] of the same compound?
A: The antibacterial activity was “-”.

Q: Which results are given for CNC(=O)C[C@@H](NC(=O)[C@H](Cc1c[nH]c2ccccc12)NC(=O)[C@H](NC(=O)[C@H](Cc1c[nH]c2ccccc12)NC(=O)[C@@H](CC(C)C)NC(=O)[C@H](Cc1c[nH]c2ccccc12)NC(=O)[C@@H](CC(C)C)NC(=O)[C@@H](NC(=O)[C@H](NC(=O)[C@H](C)NC(=O)[C@H](NC(=O)[C@H](C)NC(=O)CNC(=O)[C@@H](NC=O)C(C)C)C(C)C)C(C)C)C(C)C)C(C)C)C(=O)N[C@@H](Cc1c[nH]c2ccccc12)C(=O)NCCO [compound 3903] (For-VGA[dV]A[dV]V[dL]W[dL]W[dV]W[dD](NHMe)W-NHCH2CH2OH)?
A: H+/Na+ transport activity normalized against the value of 1 (1.00) [1]: 1.10; viability [2]: 100%; antibacterial activity [3]: -

Q: What does the source list for CNC(=O)C[C@@H](NC(=O)[C@H](Cc1c[nH]c2ccccc12)NC(=O)[C@H](NC(=O)[C@H](Cc1c[nH]c2ccccc12)NC(=O)[C@H](NC(=O)[C@H](Cc1c[nH]c2ccccc12)NC(=O)[C@H](NC(=O)[C@@H](NC(=O)[C@@H](CC(C)C)NC(=O)[C@H](C)NC(=O)[C@H](NC(=O)[C@H](C)NC(=O)CNC(=O)[C@@H](NC=O)C(C)C)C(C)C)C(C)C)C(C)C)C(C)C)C(C)C)C(=O)N[C@@H](Cc1c[nH]c2ccccc12)C(=O)NCCO [compound 2911] (For-VGA[dV]A[dL]V[dV]W[dV]W[dV]W[dD](NHMe)W-NHCH2CH2OH)?
A: H+/Na+ transport activity normalized against the value of 1 (1.00) [1]: 1.16; viability [2]: 100%; antibacterial activity [3]: -

Q: With CC(C)C[C@@H](NC(=O)[C@H](C)NC(=O)[C@H](NC(=O)[C@H](C)NC(=O)CNC(=O)[C@@H](NC=O)C(C)C)C(C)C)C(=O)N[C@H](C(=O)N[C@H](CC(C)C)C(=O)N[C@@H](Cc1c[nH]c2ccccc12)C(=O)N[C@@H](C(=O)N[C@@H](Cc1c[nH]c2ccccc12)C(=O)N[C@@H](C(=O)N[C@@H](Cc1c[nH]c2ccccc12)C(=O)N[C@H](CC(C)C)C(=O)N[C@@H](Cc1c[nH]c2ccccc12)C(=O)NCCO)C(C)C)C(C)C)C(C)C [compound 11126] (For-VGA[dV]A[dL]V[dL]W[dV]W[dV]W[dL]W-NHCH2CH2OH) as the compound, how does the “H+/Na+ transport activity normalized” value [1] read?
A: The value was 1.07.

Q: And the viability [2]?
A: The viability was 8.7%.

Q: What about the antibacterial activity [3] of the same compound?
A: The antibacterial activity was “-”.

Q: Which “H+/Na+ transport activity normalized” value [1] does the source give for CNC(=O)C[C@@H](NC(=O)[C@H](Cc1c[nH]c2ccccc12)NC(=O)[C@H](NC(=O)[C@H](Cc1c[nH]c2ccccc12)NC(=O)[C@@H](CC(C)C)NC(=O)[C@H](Cc1c[nH]c2ccccc12)NC(=O)[C@H](NC(=O)[C@@H](NC(=O)[C@H](NC(=O)[C@H](C)NC(=O)[C@@H](CC(C)C)NC(=O)[C@H](C)NC(=O)CNC(=O)[C@@H](NC=O)C(C)C)C(C)C)C(C)C)C(C)C)C(C)C)C(=O)N[C@@H](Cc1c[nH]c2ccccc12)C(=O)NCCO [compound 3499] (For-VGA[dL]A[dV]V[dV]W[dL]W[dV]W[dD](NHMe)W-NHCH2CH2OH) here?
A: The value was 1.01.

Q: What about the viability [2] of the same compound?
A: The viability was 100%.

Q: And the antibacterial activity [3]?
A: The antibacterial activity was “+”.

Q: Which results are given for CC(C)C[C@@H](NC(=O)[C@H](C)NC(=O)CNC(=O)[C@@H](NC=O)C(C)C)C(=O)N[C@@H](C)C(=O)N[C@@H](C(=O)N[C@H](C(=O)N[C@@H](C(=O)N[C@@H](Cc1c[nH]c2ccccc12)C(=O)N[C@@H](C(=O)N[C@@H](Cc1c[nH]c2ccccc12)C(=O)N[C@H](CC(C)C)C(=O)N[C@@H](Cc1c[nH]c2ccccc12)C(=O)N[C@H](CC(C)C)C(=O)N[C@@H](Cc1c[nH]c2ccccc12)C(=O)NCCO)[C@H](C)O)C(C)C)C(C)C)[C@H](C)O [compound 1592] (For-VGA[dL]A[dT]V[dV]W[dT]W[dL]W[dL]W-NHCH2CH2OH)?
A: H+/Na+ transport activity normalized against the value of 1 (1.00) [1]: 1.03; viability [2]: 100%; antibacterial activity [3]: -

Q: Which results are given for CC(C)C[C@@H](NC(=O)[C@H](C)NC(=O)CNC(=O)[C@@H](NC=O)C(C)C)C(=O)N[C@@H](C)C(=O)N[C@@H](C(=O)N[C@H](C(=O)N[C@@H](C(=O)N[C@@H](Cc1c[nH]c2ccccc12)C(=O)N[C@@H](C(=O)N[C@@H](Cc1c[nH]c2ccccc12)C(=O)N[C@H](CC(C)C)C(=O)N[C@@H](Cc1c[nH]c2ccccc12)C(=O)N[C@@H](C(=O)N[C@@H](Cc1c[nH]c2ccccc12)C(=O)NCCO)C(C)C)C(C)C)[C@H](C)O)C(C)C)C(C)C [compound 2154] (For-VGA[dL]A[dV]V[dT]W[dV]W[dL]W[dV]W-NHCH2CH2OH)?
A: H+/Na+ transport activity normalized against the value of 1 (1.00) [1]: 1.09; viability [2]: 100%; antibacterial activity [3]: -

Q: For CC(C)C[C@@H](NC(=O)[C@H](C)NC(=O)CNC(=O)[C@@H](NC=O)C(C)C)C(=O)N[C@@H](C)C(=O)N[C@H](CC(C)C)C(=O)N[C@H](C(=O)N[C@@H](C(=O)N[C@@H](Cc1c[nH]c2ccccc12)C(=O)N[C@@H](C(=O)N[C@@H](Cc1c[nH]c2ccccc12)C(=O)N[C@H](CC(C)C)C(=O)N[C@@H](Cc1c[nH]c2ccccc12)C(=O)N[C@H](CC(C)C)C(=O)N[C@@H](Cc1c[nH]c2ccccc12)C(=O)NCCO)C(C)C)[C@H](C)O)C(C)C [compound 1631] (For-VGA[dL]A[dL]V[dT]W[dV]W[dL]W[dL]W-NHCH2CH2OH), which “H+/Na+ transport activity normalized” value [1] is on record?
A: The value was 1.04.

Q: And the viability [2]?
A: The viability was 100%.

Q: And the antibacterial activity [3]?
A: Its antibacterial activity is “-”.
